Where two headings read alike, the source gives them in different places. Marks after values point to notes of the source that are not given here. Values belong to the compound of their own block, whether it stands above or below them.
Key:
[1] = Pharmacokinetics from total plasma levels (tMPA, tMPAG), LC-MS/MS; format: in vivo, human; details: total plasma level; for Cmax: pediatric renal transplant recipients (n = 20) on MMF (CellCept), steady state, 0–4 h post-dose; for AUC(0–4) Normalized to Drug Dose: normalized to MMF dose
Description: The AUC0–4, Tmax, and Cmax parameters were calculated using the R (version 4.5.1) package software (R Core Team, 2025), supported by RStudio (version 2025.05.1+513) from Posit PBC software (Boston, MA, USA). […] The vMPA and vMPAG capillary blood levels were corrected using formulas validated in our department (partially published by Kocur et al.) and expressed as estimated capillary plasma concentrations. […] Individual PK profiles for each patient included in the study are provided in the Supplementary File (Figures S4 and S5).
Briefly, 50 μL of plasma was diluted with 90 μL of deionized water, and 10 μL of IS (d3-MPA) was added. Next, 400 μL of the precipitation mixture (a 0.1 M aqueous zinc sulfate solution and acetonitrile, 50:50 (v/v)) was added. The sample was then shaken for 10 min at room temperature using an automatic rotary vortex (Ohaus, Parsippany, NJ, USA) and centrifuged for 10 min at 13,500× g at 4 °C thereafter. The supernatant was transferred into chromatographic vials and analyzed using LC-MS/MS. Sample processing was performed at the Department of Drug Chemistry, Pharmaceutical and Biomedical Analysis, Medical University of Warsaw, Poland.
From each patient (if they consented to all sampling types), four samples were collected simultaneously at all defined time points of the dynamic PK profile (0, 0.5, 1, 2, and 4 h after drug administration). Whole blood was collected using standard venipuncture by a phlebotomist into a K3-EDTA test tube (Sarstedt, Nümbrecht, Germany). Plasma for analytical determination was obtained by centrifuging a portion of the whole blood and stored at −40 °C until assay. At the same time, 10 µL capillary blood samples were collected from a finger prick using the Mitra™ device (VAMS samples were stored in light-protected aluminum zip bags with desiccant at room temperature).

[2] = Stability of analytes in dried saliva Mitra VAMS tips; format: physicochemical; details: n=6; for recovery at 1 week / recovery at 2 weeks / recovery at 24 hours / recovery at 3 days: dried saliva on Mitra VAMS tips, room temperature (light-protected with desiccant); for stability, mean recovery: room temperature (with daily light exposure)
Description: Stability testing, a crucial component of method development and validation, was conducted through various experiments, including storage stability in the autosampler and stability of analytes in VAMS tips under different stress conditions. Analyte stability is deemed acceptable if the differences stay within the nominal range of ±15%. Additionally, the reproducibility of the injection was assessed during autosampler stability testing.

[3] = pediatric renal transplant recipients (n = 20) on MMF, mean (range)

Tmax ([1]; human, plasma, pediatric renal transplant recipients (n = 20) on MMF, mean (range), read-out: Tmax): 30 to 60 min
concentration at 0 h ([1]; human, 0 h (pre-dose), n = 20, mean ± SD, read-out: C0 concentration): 2150 ± 1620 ng/mL
concentration at 0.5 h ([1]; human, 0.5 h post-dose, n = 20, mean ± SD, read-out: C0.5 concentration): 10700 ± 9560 ng/mL
concentration at 1 h ([1]; human, 1 h post-dose, n = 20, mean ± SD, read-out: C1 concentration): 11400 ± 6810 ng/mL
concentration at 2 h ([1]; human, 2 h post-dose, n = 20, mean ± SD, read-out: C2 concentration): 4680 ± 3410 ng/mL
concentration at 4 h ([1]; human, 4 h post-dose, n = 20, mean ± SD, read-out: C4 concentration): 2230 ± 2390 ng/mL
Cmax ([1]; human, mean (range), read-out: Cmax): 14400 ng/mL
AUC(0-t) ([1]; human, pediatric renal transplant recipients (n = 20) on MMF, mean (range)): 23800 ng·h/mL
AUC(0–4) Normalized to Drug Dose ([1]; n = 20, mean (range)): 83.67 (22.44–447.22) ^d mg × h/mL × g
Tmax ([1]; pediatric renal transplant recipients (n = 20) on MMF, mean (range), listed as tMPA): 0.78 (0.50–1.00) h
recovery at 1 week ([2]; HQC, 1 week): 97.2%
recovery at 2 weeks ([2]; HQC, 2 weeks): 96%
recovery at 24 hours ([2]; HQC, 24 hours): 99.9%
recovery at 3 days ([2]; HQC, 3 days): 100%
recovery at 1 week ([2]; LQC, 1 week): 98%
recovery at 2 weeks ([2]; LQC, 2 weeks): 95.6%
recovery at 24 hours ([2]; LQC, 24 hours): 101%
recovery at 3 days ([2]; LQC, 3 days): 99.1%
Compound: COc1c(C)c2c(c(O)c1C/C=C(\C)CCC(=O)O)C(=O)OC2 [MPA, Mycophenolic acid]

C0 concentration ([1]; 0 h (pre-dose), n = 20, mean ± SD): 23805 ± 12320 ng/mL
C0.5 concentration ([1]; 0.5 h post-dose, n = 20, mean ± SD): 37800 ± 17081 ng/mL
C1 concentration ([1]; 1 h post-dose, n = 20, mean ± SD): 48.647 ± 22.134 mg/L
C2 concentration ([1]; 2 h post-dose, n = 20, mean ± SD): 34.258 ± 13.977 mg/L
C4 concentration ([1]; 4 h post-dose, n = 20, mean ± SD): 27.075 ± 12.413 mg/L
AUC(0–4) Normalized to Drug Dose ([1]; n = 20, mean (range)): 384.94 (106.81–1050.08) ^d mg × h/mL × g
Cmax ([1]; mean (range)): 49.54 (19.24–109.28) mg/L
AUC(0–4) [1, 3]: 144000 ng·h/mL
Tmax [1, 3]: 1.33 (0.50–2.00) h
stability, mean recovery ([2]; HQC, 1 week): 96.66%
stability, mean recovery ([2]; HQC, 2 weeks): 94.51%
stability, mean recovery ([2]; HQC, 24 hours): 100.16%
stability, mean recovery ([2]; HQC, 3 days): 98.94%
stability, mean recovery ([2]; LQC, 1 week): 99.67%
stability, mean recovery ([2]; LQC, 2 weeks): 97.25%
stability, mean recovery ([2]; LQC, 24 hours): 103.15%
stability, mean recovery ([2]; LQC, 3 days): 100.46%
Compound: COc1c(C)c2c(c(O[C@@H]3O[C@H](C(=O)O)[C@@H](O)[C@H](O)[C@H]3O)c1C/C=C(\C)CCC(=O)O)C(=O)OC2 [MPAG, mycophenolic acid glucuronide]

— publication PMC12655819 (Pharmaceuticals, 2025)
